Measured values taken from US7507727B2, “Substituted quinobenzoxazine analogs and methods of using thereof” (Cylene Pharmaceuticals, Inc., priority 2003, dated 2009).
Where two headings read alike, the source gives them in different places.

Legend:
[1] = target: c-Myc template DNA (c-myc quadruplex); experiment: Quadruplex binding / stop assay (Taq polymerase arrest, capillary electrophoresis)
From the text: A high throughput polymerase arrest assay has been developed. The assay comprises contacting a template nucleic acid, often DNA, with a primer, which also is often DNA; contacting the primer/template complex with a compound described herein (also referred to as a “test compound”); contacting the primer/template complex with a polymerase; and separating reaction products. The assay often includes the step of denaturing the primer/template complex mixture and then renaturing the complex, which often is carried out before a test molecule is added to the system. Multiple assays often are carried out using varying concentrations of a test compound, such that an IC50 value can be obtained, for example. The reaction products often include extended primers of different lengths.
Thus, the reaction mixture often includes at least two reaction products when a test compound interacts with a quadruplex structure in the template, one having a completely extended primer and one having an incompletely extended primer, and these two reaction products are separated. The products may be separated using any convenient separation method, such as mass spectrometry and in one embodiment, capillary electrophoresis.
In an embodiment, a primer oligonucleotide covalently linked to a fluorescent label is contacted with template DNA. The resulting complex is contacted with a test molecule and then contacted with a polymerase capable of extending the primer. The reaction products then are separated and detected by capillary electrophoresis. A longer primer sequence was used for practicing this embodiment as compared to embodiments where the primer includes no covalently-linked fluorophore or where capillary electrophoresis is not utilized for separation. Deoxynucleotides are added at any stage of the assay before the separation, often when the primer is contacted with the template DNA. The template DNA/primer complex often is denatured (e.g., by increasing the temperature of the system) and then renatured (e.g., by cooling the system) before a test compound is added).
The mixture was denatured at 95° C. for 5 minutes and, after cooling down to room temperature, was incubated at 37° C. for 15 minutes.
After cooling down to room temperature, 1 mM KCl and the test compound (various concentrations) were added and the mixture incubated for 15 minutes at room temperature. The primer extension was performed by adding 10 mM KCl and Taq DNA Polymerase (2.5 U/reaction, Promega) and incubating at 70° C. for 30 minutes. The reaction was stopped by adding 1 μl of the reaction mixture to 10 μl Hi-Di Formamide mixed and 0.25 μl LIZ120 size standard. Hi-Di Formamide and LIZ120 size standard were purchased from Applied Biosystems.
The partially extended quadruplex arrest product was between 61 or 62 bases long and the full-length extended product was 99 bases long. The products were separated and analyzed using capillary electrophoresis. Capillary electrophoresis was performed using an ABI PRISM 3100-Avant Genetic Analyzer.
Stop Assays. […] A fluorescently labeled primer DNA is then annealed to the 3′ end of the template DNA. A DNA polymerase such as Taq polymerase is then introduced to synthesize a complementary strand of DNA by extending from the fluorescently labeled primer. When the progress of the Taq polymerase is unhindered, it synthesizes a full-length copy of the template.
These products are visualized by capillary electrophoresis.

[2] = tested on: HeLa cells; experiment: MTS cell proliferation and/or cytotoxicity assay; format: cell-based, Human
Procedure: Cell culture. Human cervical epithelial cells (HeLa cells) were obtained from American Type Culture Collection (Manassas, Va.). Cells were grown in Eagle's minimum essential medium (MEM, Hyclone, Utah) supplemented with 2 mM Glutamine, 0.1 mM nonessential amino acid, 1 mM Na Pyruvate, 1.5 g/L NaHCO3, 50 mg/L gentamicin, and 10% fetal bovine serum (Hyclone, USA) in a humidified atmosphere of 5% CO2 at 37° C.
MTS assays. Antiproliferative effects of the compounds were tested by the CellTiter 96 AQueous assay (Promega, WI), which is a calorimetric assay for determining the number of viable cells. (See, e.g., Wang, L., et al., Methods Cell Sci (1996) 18:249-255). In one example, cells (4,500 cells/well) were seeded on 96 well flat bottom plates (Corning, N.Y.) in 100 μl of culture medium without any anticancer drug on day 0, and the culture medium was exchanged for that //contained anticancer drugs at various concentrations on day 1. After incubation for 3 days under normal growth conditions (on day 4), the monolayers were washed once in PBS, and the medium was switched to 100 μl of PBS in each of the 96 well plate. After mixing MTS and PMS at the ratio of 20:1, 20 μl of MTS/PMS solution was added to each of the 96 well plate and incubated for 4 hours in a humidified atmosphere of 5% CO2 at 37° C. The absorbance was read at 490 nm using FLUOstar Galaxy 96 well plate reader (BMG Labtechnologies, Germany). μM concentrations (MTS data) reported in Table 1 are concentrations at which 50% of antiproliferative cell response is seen.

[3] = read-out: Stop Data c-Myc μM, concentration at which 50% of the DNA was arrested (arrested:full-length 1:1)
[4] = Homo sapiens, HeLa, 72 h, concentration at which 50% of antiproliferative cell response is seen, 3 days incubation, read-out: MTS Data Hella
[5] = read-out: S DATA, Table 1D, stop assay data
[6] = Homo sapiens, HeLa, HeLa cells, MTS, read-out: Hela MTS
[7] = concentration at which 50% of antiproliferative cell response is seen, 3 days incubation, read-out: MTS Data Hella

Row | SMILES | IC50 [1, 3] | IC50 [1, 5] | IC50 [2, 4] | IC50 [2, 6] | IC50 [2, 7]
1 | CN1CCCC1CCNC(=O)c1cn2c3c(c(NCCc4ccc(O)cc4)c(F)cc3c1=O)Oc1cc3ccccc3cc1-2 (stereo not shown) [compound 378] | 0.75 µM |  | 2100 nM |  | 
2 | CN1CCCC1CCNC(=O)c1cn2c3c(c(NCCc4c[nH]cn4)c(F)cc3c1=O)Oc1cc3ccccc3cc1-2 (stereo not shown) [compound 1468] | 0.375 µM |  | 350 nM |  | 
3 | O=C(NCCN1CCCC1)c1cn2c3cc4c(=O)c5ccccc5c(=O)c4cc3oc3c(NCCN4CCCC4)c(F)cc(c1=O)c32 [compound 568] | 0.22 µM |  | 4100 nM |  | 
4 | N[C@H]1CCN(c2c(F)cc3c(=O)c(C(=O)NCCN4CCCC4)cn4c5cc6c(cc5oc2c34)c(=O)c2ccccc26)C1 [compound 583] | 0.18 µM |  | 250 nM |  | 
5 | CN1CCCC1CCNC(=O)c1cn2c3c(c(N4CC[C@@H](N)C4)c(F)cc3c1=O)Oc1ccccc1-2 (stereo partly shown) [compound 111] | 1.75 µM |  | 220 nM |  | 
6 | CN1CCCC1CCNC(=O)c1cn2c3c(c(NCC4(O)CCCCC4)c(F)cc3c1=O)Oc1cc3ccccc3cc1-2 (stereo not shown) [compound 391] | 0.75 µM |  | 240 nM |  | 
7 | CN1CCCC1CCNC(=O)c1cn2c3c(c(N4CC5CCCNC5C4)c(F)cc3c1=O)Oc1cc3ccccc3cc1-2 (stereo not shown) [compound 546] | 0.375 µM |  | 100 nM |  | 
8 | N=C(N)NCC1CCCC(CNC(=O)c2cn3c4c(c(N5CCC(N)C5)c(F)cc4c2=O)Oc2cc4ccccc4cc2-3)C1 (stereo not shown) [compound 1649] |  | 0.37 µM |  | 2200 nM | 
9 | CN1CCCC1CCNC(=O)c1cn2c3c(c(N4CCC(N)C4)c(F)cc3c1=O)Oc1cc3c(cc1-2)Cc1ccccc1-3 (stereo not shown) [compound 537] | 0.375 µM |  | 290 nM |  | 
10 | O=C(NCCN1CCCC1)c1cn2c3cc4c(cc3oc3c(NCCN5CCCC5)c(F)cc(c1=O)c32)c(=O)c1ccccc14 [compound 577] | 0.18 µM |  | 1100 nM |  | 
11 | CN(C)CCCCNc1c(F)cc2c(=O)c(C(=O)NCCCn3ccnc3)cn3c2c1Oc1cc2c(cc1-3)oc1ccccc12 [compound 509] | 0.375 µM |  | 3100 nM |  | 
12 | O=C(NCCCN1CCOCC1)c1cn2c3c(c(N4CC5CCCNC5C4)c(F)cc3c1=O)Oc1cc3ccccc3cc1-2 (stereo not shown) [compound 1637] |  | 0.375 µM |  | 100 nM | 
13 | CN(C)CCCCNc1c(F)cc2c(=O)c(C(=O)NCCC3CCCN3C)cn3c4cc5oc6cc([N+](=O)[O-])ccc6[nH]c5cc4oc1c23 (stereo not shown) [compound 569] | 0.18 µM |  | 7800 nM |  | 
14 | CN1CCN(c2c(F)cc3c(=O)c(C(=O)NCCN4CCCC4)cn4c5cc6c(=O)c7ccccc7c(=O)c6cc5oc2c34)CC1 [compound 340] | 0.9 µM |  | 8500 nM |  | 
15 | O=C(NCCN1CCCC1)c1cn2c3c(c(N4CCC(c5cnccn5)C4)ccc3c1=O)Oc1cc3ccccc3cc1-2 (stereo not shown) [compound 303] | 1.5 µM |  | 2100 nM |  | 
16 | CC(=O)N[C@@H]1CCC(c2c(F)cc3c(=O)c(C(=O)NCCN4CCCC4)cn4c3c2Oc2cc3c(cc2-4)oc2ccccc23)C1 (stereo partly shown) [compound 370] | 0.75 µM |  | 3500 nM |  | 
17 | CN1CCCC1CCNC(=O)c1cn2c3c(c(N4CCC(N)C4)c(F)cc3c1=O)Oc1cc3ccccc3cc1-2 (stereo not shown) [compound 472] | 0.62 µM |  |  |  | 3300 nM
18 | CN1CCCC1CCNC(=O)c1cn2c3c(c(N4CCC(c5cnccn5)C4)c(F)cc3c1=O)Oc1cc3ccccc3cc1-2 (stereo not shown) [compound 516] | 0.375 µM |  | 2300 nM |  | 
19 | CN1CCCC1CCNC(=O)c1cn2c3c(c(NC4CN5CCC4CC5)c(F)cc3c1=O)Oc1cc3ccccc3cc1-2 (stereo not shown) [compound 486] | 0.5 µM |  | 390 nM |  | 
20 | CN(C)CCCCNc1c(F)cc2c(=O)c(C(=O)NCCN3CCCC3)cn3c2c1Oc1cc2c(cc1-3)oc1ccccc12 [compound 369] | 0.75 µM |  | 3500 nM |  | 
21 | CN1CCCC1CCNC(=O)c1cn2c3c(c(N4CC5CCCNC5C4)c(F)cc3c1=O)Oc1cc3ccccc3cc1-2 (stereo not shown) [compound 1636] |  | 0.375 µM |  | 150 nM | 
22 | CN1CCCC1CCNC(=O)c1cn2c3c(c(N4CCC(NC(=O)OC(C)(C)C)C4)c(F)cc3c1=O)Oc1cc3c(cc1-2)oc1ccccc13 (stereo not shown) [compound 389] | 0.75 µM |  | 290 nM |  | 
23 | CN1CCN(CCC(=O)N[C@@H]2CCN(c3c(F)cc4c(=O)c(C(=O)NCCC5CCCN5C)cn5c4c3Oc3cc4c(cc3-5)oc3ccccc34)C2)CC1 (stereo partly shown) [compound 360] | 0.75 µM |  | 4500 nM |  | 
24 | O=C(NCCN1CCCC1)c1cn2c3c(c(N4CC5CCCNC5C4)c(F)cc3c1=O)Oc1cc3ccccc3cc1-2 (stereo not shown) [compound 581] | 0.18 µM |  |  |  | 300 nM
25 | CN(C)CCCCNC(=O)c1cn2c3cc4c(cc3oc3c(N5CC[C@H](NC(=O)OC(C)(C)C)C5)c(F)cc(c1=O)c32)c(=O)c1ccccc14 [compound 480] | 0.5 µM |  | 3700 nM |  | 
26 | O=C(NCCN1CCCC1)c1cn2c3c(c(NCCCN4CCOCC4)c(F)cc3c1=O)Oc1cc3c(O)ncnc3cc1-2 [compound 107] | 1.75 µM |  | 1800 nM |  | 
27 | O=C(CCN1CCCC1)N[C@@H]1CCN(c2c(F)cc3c(=O)c(C(=O)NCCN4CCOCC4)cn4c3c2Oc2cc3c(cc2-4)oc2ccccc23)C1 [compound 504] | 0.375 µM |  | 3400 nM |  | 
28 | CN1CCCC1CCNC(=O)c1cn2c3c(c(N4CCC(N)C4)c(F)cc3c1=O)Oc1cc(-c3nc4ccccc4s3)ccc1-2 (stereo not shown) [compound 311] | 1 µM |  | 2100 nM |  | 
29 | O=C(NCCN1CCOCC1)c1cn2c3c(c(N4CC5CCCNC5C4)c(F)cc3c1=O)Oc1cc3ccccc3cc1-2 (stereo not shown) [compound 1640] |  | 0.25 µM |  | 30 nM | 

Further lines, with some results ahead:

Row | IC50 [1, 3] | IC50 [1, 5] | SMILES | IC50 [2, 4] | IC50 [2, 6] | IC50 [2, 7]
30 |  | 3.3 µM | O=C(NCCN1CCCC1)c1cn2c3c(c(SCCc4ccccn4)c(F)cc3c1=O)Oc1cc3ccccc3cc1-2 [compound 1782] |  | 2100 nM | 
31 | 0.375 µM |  | CN1CCCC1CCNC(=O)c1cn2c3c(c(N4CC[C@H](N)C4)c(N)cc3c1=O)Oc1cc3ccccc3cc1-2 (stereo partly shown) [compound 526] | 900 nM |  | 
32 | 0.75 µM |  | C[C@@H](O)CNc1c(F)cc2c(=O)c(C(=O)NCCC3CCCN3C)cn3c2c1Oc1cc2ccccc2cc1-3 (stereo partly shown) [compound 382] | 1800 nM |  | 
33 | 1.75 µM |  | CN(C)CCCCNC(=O)c1cn2c3c(c(N4CC[C@@H](N)C4)c(F)cc3c1=O)Oc1ccccc1-2 [compound 106] | 2500 nM |  | 
34 | 0.55 µM |  | O=C(NCCN1CCCC1)c1cn2c3c(c(NCCN4CCCC4)c(F)cc3c1=O)Oc1cc3c(cc1-2)oc1ccccc13 [compound 477] | 2100 nM |  | 
35 | 0.5 µM |  | CC(C)(C)OC(=O)N[C@H]1CCN(c2c(F)cc3c(=O)c(C(=O)O)cn4c5cc6oc7cc([N+](=O)[O-])ccc7[nH]c6cc5oc2c34)C1 [compound 24] | 7000 nM |  | 
36 | 1 µM |  | CCN(CC)CCCC(C)NC(=O)c1cn2c3c(c(N4CCC(c5cnccn5)C4)ccc3c1=O)Oc1cc3ccccc3cc1-2 (stereo not shown) [compound 309] | 3000 nM |  | 
37 | 0.375 µM |  | CN(C)CCCCNC(=O)c1cn2c3cc4c(cc3oc3c(NCCCN5CCOCC5)c(F)cc(c1=O)c32)c(=O)c1ccccc14 [compound 519] | 2100 nM |  | 
38 | 1 µM |  | CN(CCc1ccccn1)C(=O)c1cn2c3c(c(NCCCN4CCOCC4)c(F)cc3c1=O)Oc1cc3c(cc1-2)-c1ccccc1C3 [compound 307] | 3100 nM |  | 
39 | 0.375 µM |  | NC1CCN(c2c(F)cc3c(=O)c(C(=O)NCCCn4ccnc4)cn4c3c2Oc2cc3c(cc2-4)oc2ccccc23)C1 (stereo not shown) [compound 521] | 1700 nM |  | 
40 | 0.75 µM |  | CN1CCC(Nc2c(F)cc3c(=O)c(C(=O)NCCC4CCCN4C)cn4c3c2Oc2cc3ccccc3cc2-4)CC1 (stereo not shown) [compound 388] | 310 nM |  | 
41 | 0.75 µM |  | Nc1c(F)c(NCCCN2CCOCC2)c2c3c1c(=O)c(C(=O)NCCN1CCCC1)cn3-c1cc3ccccc3cc1O2 [compound 377] | 2200 nM |  | 
42 | 0.75 µM |  | CN(C)CCCCNC(=O)c1cn2c3cc4oc5cc([N+](=O)[O-])ccc5[nH]c4cc3oc3c(NCCN4CCCC4)c(F)cc(c1=O)c32 [compound 359] | 4800 nM |  | 
43 |  | 0.75 µM | CN(C)c1cccc(CNc2c(F)cc3c(=O)c(C(=O)NCCC4CCCN4C)cn4c3c2Oc2cc3ccccc3cc2-4)c1 (stereo not shown) [compound 1688] |  | 250 nM | 
44 | 0.375 µM |  | CC(C)NCCCNC(=O)c1cn2c3c(c(N4CCC(N)C4)c(F)cc3c1=O)Oc1cc3ccccc3cc1-2 (stereo not shown) [compound 541] | 270 nM |  | 
45 | 0.375 µM |  | CN1CCCC1CCNC(=O)c1cn2c3c(c(NCCCN(CCO)CCO)c(F)cc3c1=O)Oc1cc3ccccc3cc1-2 (stereo not shown) [compound 534] | 400 nM |  | 
46 | 0.375 µM |  | CCN(C)CCCC(C)NC(=O)c1cn2c3c(c(NCCN4CCCC4)ccc3c1=O)Oc1cc3ccccc3cc1-2 (stereo not shown) [compound 543] | 200 nM |  | 
47 | 0.25 µM |  | NC1CCN(c2c(F)cc3c(=O)c(C(=O)O)cn4c5cc6c(=O)c7ccccc7c(=O)c6cc5oc2c34)C1 (stereo not shown) [compound 25] | 200 nM |  | 
